ChEMBL document CHEMBL2407065, “Discovery of 7-aminofuro[2,3-c]pyridine inhibitors of TAK1: optimization of kinase selectivity and pharmacokinetics” (Bioorg Med Chem Lett, 2013)

Legend:
[1] = biological target: TAK1/TAB1 (Homo sapiens, UniProt O43318); experiment: Inhibition of TAK1-TAB1 (unknown origin) by alphascreen assay in presence of ATP; format: protein-complex assay
[2] = Volume of distribution at steady state in mouse at 2 mg/kg, iv; format: ADME, organism-based; parameters: dose 2 mg/kg, route intravenous; conditions: in vivo, read-out: Vdss
[3] = Half life in mouse at 2 mg/kg, iv; format: ADME, organism-based; parameters: dose 2 mg/kg, route intravenous; conditions: in vivo
[4] = Clearance in mouse at 2 mg/kg, iv; format: ADME, organism-based; parameters: dose 2 mg/kg, route intravenous; conditions: in vivo
[5] = AUC (0 to last) in mouse at 20 mg/kg, po; format: ADME, organism-based; parameters: time 0 - last, dose 20 mg/kg, route oral; conditions: plasma
[6] = Drug metabolism in mouse liver microsomes assessed as M+176 formation; format: ADME, Microsome
[7] = Oral bioavailability in mouse at 20 mg/kg; format: ADME, organism-based; conditions: in vivo
[8] = AUC (0 to infinity) in mouse at 2 mg/kg, iv; format: ADME, organism-based; parameters: dose 2 mg/kg, route intravenous, time infinity; conditions: plasma
[9] = Cmax in mouse at 20 mg/kg, po; format: ADME, organism-based; parameters: dose 20 mg/kg, route oral; conditions: in vivo
[10] = system: Liver microsomes; experiment: Drug metabolism in human liver microsomes assessed as M+176 formation; format: ADME, Microsome
[11] = AUC (0 to infinity) in mouse at 20 mg/kg, po; format: ADME, organism-based; parameters: time infinity, dose 20 mg/kg, route oral; conditions: plasma
[12] = biological target: T1, Mitogen-activated protein kinase kinase kinase 7 (Homo sapiens, UniProt O43318); experiment: Inhibition of TAK1 in human HCT116 cells assessed as inhibition of TNF-alpha-stimulated JNK phosphorylation; format: cell-based, HCT-116
T1 sequence (O43318 whole entry): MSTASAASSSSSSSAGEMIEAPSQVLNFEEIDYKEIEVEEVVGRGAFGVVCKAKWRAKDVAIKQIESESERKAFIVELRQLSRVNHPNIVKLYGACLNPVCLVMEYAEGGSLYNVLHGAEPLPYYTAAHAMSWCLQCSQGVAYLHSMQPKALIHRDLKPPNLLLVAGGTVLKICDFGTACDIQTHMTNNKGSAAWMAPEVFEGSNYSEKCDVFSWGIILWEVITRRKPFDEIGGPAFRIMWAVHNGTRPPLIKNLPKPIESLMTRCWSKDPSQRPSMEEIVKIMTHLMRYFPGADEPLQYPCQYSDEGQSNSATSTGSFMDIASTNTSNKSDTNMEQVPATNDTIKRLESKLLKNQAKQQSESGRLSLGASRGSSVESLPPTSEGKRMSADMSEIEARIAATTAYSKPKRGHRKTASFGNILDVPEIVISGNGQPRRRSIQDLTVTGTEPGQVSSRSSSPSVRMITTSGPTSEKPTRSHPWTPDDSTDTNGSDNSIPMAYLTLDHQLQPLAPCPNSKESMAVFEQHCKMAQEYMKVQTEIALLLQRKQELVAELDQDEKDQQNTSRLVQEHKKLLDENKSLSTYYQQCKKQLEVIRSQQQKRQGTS

[13] = biological target: Aurora kinase B (Homo sapiens, UniProt Q96GD4); experiment: Inhibition of aurora B kinase in human HT-29 cells assessed as inhibition of histone H3 S10 phosphorylation; format: cell-based
[14] = Metabolic stability in human liver microsomes assessed as extraction ratio; format: ADME, Microsome; conditions: read-out: ERH
[15] = biological target: Vascular endothelial growth factor receptor 2 (Homo sapiens, UniProt P35968); experiment: Inhibition of KDR autophosphorylation overexpressed in VEGF-stimulated human HEK293 cells; format: cell-based
[16] = Metabolic stability in mouse liver microsomes assessed as extraction ratio; format: ADME, Microsome; conditions: read-out: ERH
[17] = Tmax in mouse at 20 mg/kg, po; format: ADME, organism-based; parameters: dose 20 mg/kg, route oral; conditions: in vivo
[18] = Cmax in mouse at 100 mg/kg, po; format: ADME, organism-based; parameters: dose 100 mg/kg, route oral; conditions: in vivo
[19] = biological target: T1, Mitogen-activated protein kinase kinase kinase 7; experiment: Inhibition of TAK1 in human TOV21G cells assessed as inhibition of JNK phosphorylation
[20] = AUC (0 to infinity) in mouse at 100 mg/kg, po; format: ADME, organism-based; parameters: time infinity, dose 100 mg/kg, route oral; conditions: plasma
[21] = Antitumor activity against human TOV21G cells xenografted in CD-1 nude mouse assessed as tumor growth inhibition at 100 mg/kg, sc qd administered for 14 days measured on day 15 relative to vehicle-treated control; format: functional; conditions: route subcutaneous, read-out: TGI
[22] = Oral bioavailability in mouse at 100 mg/kg; format: ADME, organism-based; conditions: in vivo

TAK1/TAB1, sequence (Q15750 whole entry, one chain of several): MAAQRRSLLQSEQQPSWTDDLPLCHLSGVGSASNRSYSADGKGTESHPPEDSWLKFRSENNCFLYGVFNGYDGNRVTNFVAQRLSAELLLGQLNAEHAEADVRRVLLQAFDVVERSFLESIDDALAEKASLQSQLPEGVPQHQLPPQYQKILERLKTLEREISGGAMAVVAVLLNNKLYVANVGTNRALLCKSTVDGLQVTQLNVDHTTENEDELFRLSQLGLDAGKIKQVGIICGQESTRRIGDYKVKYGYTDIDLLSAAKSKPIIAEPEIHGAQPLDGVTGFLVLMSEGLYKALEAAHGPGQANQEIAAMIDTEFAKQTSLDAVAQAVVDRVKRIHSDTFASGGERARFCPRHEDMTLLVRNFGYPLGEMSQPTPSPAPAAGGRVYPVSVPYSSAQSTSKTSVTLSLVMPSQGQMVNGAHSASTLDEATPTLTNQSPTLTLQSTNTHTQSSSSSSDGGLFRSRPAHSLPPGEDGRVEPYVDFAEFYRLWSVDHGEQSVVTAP
Aurora kinase B, sequence (Q96GD4 whole entry): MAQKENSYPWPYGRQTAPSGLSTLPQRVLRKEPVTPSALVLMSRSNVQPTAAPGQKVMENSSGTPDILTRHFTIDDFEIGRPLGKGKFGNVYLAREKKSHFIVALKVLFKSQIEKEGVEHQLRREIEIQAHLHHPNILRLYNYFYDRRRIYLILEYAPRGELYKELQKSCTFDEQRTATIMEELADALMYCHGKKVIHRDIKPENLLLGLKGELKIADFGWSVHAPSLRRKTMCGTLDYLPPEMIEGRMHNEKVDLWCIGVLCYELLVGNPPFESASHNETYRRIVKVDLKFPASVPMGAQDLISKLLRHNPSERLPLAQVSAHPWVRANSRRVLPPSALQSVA
Vascular endothelial growth factor receptor 2, sequence (P35968 whole entry): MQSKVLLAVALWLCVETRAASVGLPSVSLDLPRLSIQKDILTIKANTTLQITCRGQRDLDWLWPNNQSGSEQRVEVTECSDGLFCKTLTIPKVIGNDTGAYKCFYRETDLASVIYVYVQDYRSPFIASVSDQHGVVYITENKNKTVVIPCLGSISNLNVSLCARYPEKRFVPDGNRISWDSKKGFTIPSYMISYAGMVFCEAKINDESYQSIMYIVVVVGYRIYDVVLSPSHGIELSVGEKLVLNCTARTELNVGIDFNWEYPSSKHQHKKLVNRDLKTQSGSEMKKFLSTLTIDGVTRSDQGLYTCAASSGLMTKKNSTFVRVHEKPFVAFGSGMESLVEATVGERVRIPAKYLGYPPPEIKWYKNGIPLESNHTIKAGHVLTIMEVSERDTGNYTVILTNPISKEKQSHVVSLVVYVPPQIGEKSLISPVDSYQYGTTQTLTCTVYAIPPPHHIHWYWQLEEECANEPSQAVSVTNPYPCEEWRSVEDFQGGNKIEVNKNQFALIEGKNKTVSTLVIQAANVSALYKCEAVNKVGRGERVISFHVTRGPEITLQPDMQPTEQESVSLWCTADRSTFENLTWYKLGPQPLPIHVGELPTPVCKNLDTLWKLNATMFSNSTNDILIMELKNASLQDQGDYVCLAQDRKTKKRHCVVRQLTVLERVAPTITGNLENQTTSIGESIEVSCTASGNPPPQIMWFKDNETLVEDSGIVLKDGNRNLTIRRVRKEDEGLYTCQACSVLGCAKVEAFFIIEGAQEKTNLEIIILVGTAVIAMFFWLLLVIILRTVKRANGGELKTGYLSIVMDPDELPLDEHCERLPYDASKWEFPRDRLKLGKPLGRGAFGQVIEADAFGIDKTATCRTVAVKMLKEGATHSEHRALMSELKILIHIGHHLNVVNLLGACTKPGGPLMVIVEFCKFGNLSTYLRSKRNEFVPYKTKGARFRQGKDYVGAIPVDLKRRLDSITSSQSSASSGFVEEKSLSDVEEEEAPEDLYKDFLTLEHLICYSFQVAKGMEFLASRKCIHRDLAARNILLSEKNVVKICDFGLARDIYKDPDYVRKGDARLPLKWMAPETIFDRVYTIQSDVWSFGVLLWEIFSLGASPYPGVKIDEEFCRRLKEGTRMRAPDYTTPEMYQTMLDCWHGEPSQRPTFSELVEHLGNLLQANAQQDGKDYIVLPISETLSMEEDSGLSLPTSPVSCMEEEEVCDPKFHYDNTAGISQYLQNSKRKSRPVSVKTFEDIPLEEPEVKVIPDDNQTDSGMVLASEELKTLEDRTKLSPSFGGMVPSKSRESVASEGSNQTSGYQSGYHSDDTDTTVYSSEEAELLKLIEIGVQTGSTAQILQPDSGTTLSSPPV

SMILES | IC50 [1] [nM] | IC50 [12] [nM] | IC50 [13] [µM] | IC50 [15] [µM] | also measured
Nc1ncc(-c2cscn2)c2cc(-c3csc4cnccc34)oc12 | 1400 |  |  |  | 
Nc1ncc(-c2cccnc2)c2cc(-c3csc4cnccc34)oc12 | 3800 |  |  |  | 
Nc1ncc(-c2ccoc2)c2cc(-c3csc4cnccc34)oc12 | 560 |  |  |  | 
Cc1ccc(-c2cnc(N)c3oc(-c4csc5cnccc45)cc23)o1 | 2100 |  |  |  | 
Nc1ncc(-c2ccsc2)c2cc(-c3csc4cnccc34)oc12 | 2200 |  |  |  | 
CC(=O)N1CCC(n2cc(-c3cnc(N)c4oc(-c5csc6cnccc56)cc34)cn2)CC1 |  |  |  |  | Vd [2]: 2.5 L/kg; half-life [3]: 6 min; clearance [4]: 178 mL/min/kg; AUC(0-t) [5]: 21 ng·h/mL; Drug metabolism [6]: Active; bioavailability [7]: 1%; AUC(0-inf) [8]: 187 ng·h/mL; Cmax [9]: 0.03 µM; Drug metabolism [10]: Active
Nc1ncc(-c2cnn([C@H]3CC[C@H](O)CC3)c2)c2cc(-c3cccc4cnsc34)oc12 |  |  |  |  | Vd [2]: 12 L/kg; half-life [3]: 198 min; clearance [4]: 111 mL/min/kg; AUC(0-inf) [11]: 821 ng·h/mL; bioavailability [7]: 27%; AUC(0-inf) [8]: 299 ng·h/mL; Cmax [9]: 1.1 µM
Nc1ncc(-c2cnn([C@H]3CC[C@H](O)CC3)c2)c2c(-c3cncs3)c(-c3cccc4nnsc34)oc12 | 31 | 43 | 1.7 | 0.76 | hepatic extraction ratio [14]: 0.55; hepatic extraction ratio [16]: 0.53
Nc1ncc(-c2cnn([C@H]3CC[C@H](O)CC3)c2)c2c(C(F)F)c(-c3cccc4nnsc34)oc12 | 14 | 20 | 1.7 | > 20 | Vd [2]: 1 L/kg; half-life [3]: 108 min; clearance [4]: 10 mL/min/kg; hepatic extraction ratio [14]: 0.48; AUC(0-inf) [11]: 33700 ng·h/mL; bioavailability [7]: 98%; AUC(0-inf) [8]: 3440 ng·h/mL; Cmax [9]: 18.6 µM; hepatic extraction ratio [16]: 0.39
COc1nn(C)cc1-c1cnc(N)c2oc(-c3csc4cnccc34)cc12 | 600 | 1700 | > 20 | > 20 | 
Cn1cc(-c2cnc(N)c3oc(-c4csc5cnccc45)cc23)cn1 | 150 | 190 | 3 | 3.4 | 
Cc1ccc(-c2cnc(N)c3oc(-c4csc5cnccc45)cc23)s1 | 4600 |  |  |  | 
Cn1cc(-c2cnc(N)c3oc(-c4csc5cnccc45)cc23)c(C#N)n1 | 22800 | > 10000 |  |  | 
Nc1ncc(C2=CCNCC2)c2cc(-c3csc4cnccc34)oc12 | 23600 |  |  |  | 
Cn1ccc(-c2cnc(N)c3oc(-c4csc5cnccc45)cc23)c1 | 4900 |  |  |  | 
Cc1ncc(-c2cnc(N)c3oc(-c4csc5cnccc45)cc23)s1 | 230 |  |  |  | 
Cc1nn(C)cc1-c1cnc(N)c2oc(-c3csc4cnccc34)cc12 | 3500 | 1000 | > 20 | > 20 | 
Nc1ncc(-c2cnn([C@H]3CC[C@H](O)CC3)c2)c2cc(-c3cccc4nnsc34)oc12 | 9 | 15 | 0.16 | 0.65 | Vd [2]: 4.1 L/kg; half-life [3]: 96 min; clearance [4]: 70 mL/min/kg; hepatic extraction ratio [14]: 0.48; AUC(0-inf) [11]: 16000 ng·h/mL; AUC(0-inf) [8]: 477 ng·h/mL; Cmax [9]: 7.8 µM; hepatic extraction ratio [16]: 0.63; Tmax [17]: 8 h
COCC#Cc1cnc(N)c2oc(-c3csc4cnccc34)cc12 | 2900 |  |  |  | 
Nc1ncc(-c2cnn([C@H]3CC[C@H](O)CC3)c2)c2c(-c3cccnc3)c(-c3cccc4nnsc34)oc12 | 110 | 130 | 6.9 | 8.2 | hepatic extraction ratio [14]: 0.41; hepatic extraction ratio [16]: 0.48
N#Cc1c(-c2cccc3nnsc23)oc2c(N)ncc(-c3cnn([C@H]4CC[C@H](O)CC4)c3)c12 | 160 | 17 | > 10 | > 20 | hepatic extraction ratio [14]: 0.38; hepatic extraction ratio [16]: 0.43
Nc1ncc(-c2cnn([C@H]3CC[C@H](O)CC3)c2)c2c(CF)c(-c3cccc4nnsc34)oc12 | 17 | 45 | 1.5 | 18.3 | hepatic extraction ratio [14]: 0.49; hepatic extraction ratio [16]: 0.43
Cc1c(-c2cnc(N)c3oc(-c4csc5cnccc45)cc23)cnn1C | 4100 | 3000 | 17.4 | 19.9 | 
Nc1ncc(-c2ccccc2)c2cc(-c3csc4cnccc34)oc12 | 3200 |  |  |  | 
Nc1ncc(-c2cnn([C@H]3CC[C@H](O)CC3)c2)c2c(Cl)c(-c3cccc4nnsc34)oc12 |  | 18 | 6.5 | > 20 | Cmax [18]: 7.1 µM; Vd [2]: 2.1 L/kg; half-life [3]: 126 min; IC50 [19]: 28 nM; clearance [4]: 20 mL/min/kg; AUC(0-inf) [20]: 26800 ng·h/mL; inhibition in vivo at 100 mg/kg [21]: 62%; hepatic extraction ratio [14]: 0.4; AUC(0-inf) [11]: 8770 ng·h/mL; bioavailability [7]: 52%; AUC(0-inf) [8]: 1700 ng·h/mL; Cmax [9]: 3.8 µM; hepatic extraction ratio [16]: 0.39; bioavailability [22]: 32%
Cn1cnc(-c2cnc(N)c3oc(-c4csc5cnccc45)cc23)c1 | 12700 |  |  |  | 
Cc1nn(C)c(C)c1-c1cnc(N)c2oc(-c3csc4cnccc34)cc12 | 23900 | 4400 |  |  | 
